Data published in patent US12581252B2, “Substituted pyrrolo[3,4-b]pyridines as PI3K-α inhibitors” (Relay Therapeutics, Inc., priority 2020, dated 2026).

Molecular target: H1047R PIK3CA enzyme (Homo sapiens, UniProt P42336, H1047R)
Assay: ADP-Glo Biochemical PIK3CA Kinase Assay

H1047R PIK3CA enzyme, sequence (P42336 whole entry H1047R): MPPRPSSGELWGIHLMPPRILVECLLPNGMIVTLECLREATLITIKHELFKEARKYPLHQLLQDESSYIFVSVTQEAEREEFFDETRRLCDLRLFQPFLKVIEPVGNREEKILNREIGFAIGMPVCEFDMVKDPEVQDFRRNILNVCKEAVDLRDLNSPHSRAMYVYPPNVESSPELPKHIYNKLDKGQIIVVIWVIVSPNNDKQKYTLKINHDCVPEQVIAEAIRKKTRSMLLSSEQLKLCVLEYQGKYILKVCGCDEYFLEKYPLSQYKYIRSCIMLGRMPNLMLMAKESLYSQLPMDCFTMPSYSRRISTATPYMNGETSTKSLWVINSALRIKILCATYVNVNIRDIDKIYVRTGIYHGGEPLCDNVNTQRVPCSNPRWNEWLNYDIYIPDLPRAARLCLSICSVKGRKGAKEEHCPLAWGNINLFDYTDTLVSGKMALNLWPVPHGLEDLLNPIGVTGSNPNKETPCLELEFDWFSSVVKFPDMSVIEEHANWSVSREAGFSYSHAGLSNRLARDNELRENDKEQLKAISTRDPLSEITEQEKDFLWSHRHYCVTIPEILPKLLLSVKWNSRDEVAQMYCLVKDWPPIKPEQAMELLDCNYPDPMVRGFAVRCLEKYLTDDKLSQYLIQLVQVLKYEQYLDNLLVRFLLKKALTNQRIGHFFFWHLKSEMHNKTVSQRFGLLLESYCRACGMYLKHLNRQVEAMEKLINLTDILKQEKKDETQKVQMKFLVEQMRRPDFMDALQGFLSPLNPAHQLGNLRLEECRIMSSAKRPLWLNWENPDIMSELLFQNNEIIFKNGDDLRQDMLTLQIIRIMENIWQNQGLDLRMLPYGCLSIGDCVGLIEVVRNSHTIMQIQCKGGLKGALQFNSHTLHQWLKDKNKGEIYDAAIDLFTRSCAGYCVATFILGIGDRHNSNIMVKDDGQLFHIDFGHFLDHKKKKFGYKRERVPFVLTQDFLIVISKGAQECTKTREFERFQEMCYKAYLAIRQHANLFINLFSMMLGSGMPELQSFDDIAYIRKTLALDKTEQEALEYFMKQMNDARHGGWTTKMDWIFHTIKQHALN
H1047R PIK3CA enzyme, sequence (P27986 whole entry partner): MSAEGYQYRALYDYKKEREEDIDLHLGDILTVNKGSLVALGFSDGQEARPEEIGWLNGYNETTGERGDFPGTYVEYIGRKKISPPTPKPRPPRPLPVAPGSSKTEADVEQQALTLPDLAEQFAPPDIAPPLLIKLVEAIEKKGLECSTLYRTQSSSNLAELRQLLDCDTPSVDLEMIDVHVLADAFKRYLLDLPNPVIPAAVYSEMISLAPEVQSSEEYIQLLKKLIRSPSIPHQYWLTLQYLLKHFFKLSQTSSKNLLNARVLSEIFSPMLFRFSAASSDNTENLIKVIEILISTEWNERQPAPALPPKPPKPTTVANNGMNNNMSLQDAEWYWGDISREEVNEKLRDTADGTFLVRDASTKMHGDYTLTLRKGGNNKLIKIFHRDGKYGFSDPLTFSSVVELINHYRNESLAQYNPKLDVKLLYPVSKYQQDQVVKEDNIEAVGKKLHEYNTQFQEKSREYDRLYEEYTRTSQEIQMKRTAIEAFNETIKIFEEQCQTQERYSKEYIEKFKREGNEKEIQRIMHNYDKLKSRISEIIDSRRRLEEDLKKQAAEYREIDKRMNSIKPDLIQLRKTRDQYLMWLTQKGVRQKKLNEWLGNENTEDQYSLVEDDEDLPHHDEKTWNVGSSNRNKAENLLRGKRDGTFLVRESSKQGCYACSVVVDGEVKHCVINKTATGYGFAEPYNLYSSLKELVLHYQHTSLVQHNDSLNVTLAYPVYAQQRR

Row | SMILES | IC50 [nM]
1 | NC(=O)c1cnccc1-c1cc(NC(=O)c2cc(F)cc(Cl)c2)c2c(n1)C(=O)NC2c1cc(F)ccc1Cl (centres unmarked) [Compound I-507] | 1000 to 10000
2 | Cc1ccccc1[C@@H]1NC(=O)c2c(C(N)=O)ccc(NC(=O)c3cc(F)cc(C(F)(F)F)c3)c21 [Compound I-508] | ≤ 100
3 | Cc1ccccc1[C@H]1NC(=O)c2c(C(N)=O)ccc(NC(=O)c3cc(F)cc(C(F)(F)F)c3)c21 [Compound I-509] | 100 to 500
4 | O=C(NCC(F)F)Nc1cc(NC(=O)c2cc(F)cc(C(F)(F)F)c2)c2c(c1)C(=O)NC2c1cc(F)ccc1Cl (centres unmarked) [Compound I-510] | ≤ 100
5 | O=C(CO)Nc1cc(NC(=O)c2cc(F)cc(C(F)(F)F)c2)c2c(c1)C(=O)N[C@H]2c1cc(F)ccc1Cl [Compound I-511] | ≤ 100
6 | O=C(CO)Nc1cc(NC(=O)c2cc(F)cc(C(F)(F)F)c2)c2c(c1)C(=O)N[C@@H]2c1cc(F)ccc1Cl [Compound I-512] | 100 to 500
7 | O=C(Nc1cc(NC(=O)N2CC(F)(F)C2)cc2c1C(c1cc(F)ccc1Cl)NC2=O)c1cc(F)cc(C(F)(F)F)c1 (centres unmarked) [Compound I-513] | ≤ 100
8 | O=C(Nc1cc(Br)cc2c1C(c1cc(F)ccc1Cl)NC2=O)c1cccc(OC(F)(F)F)c1 (centres unmarked) [Compound I-514] | 500 to 1000
9 | O=C(Nc1cc(Br)cc2c1C(c1cc(F)ccc1Cl)NC2=O)c1cc(C(F)(F)F)ccc1F (centres unmarked) [Compound I-515] | 1000 to 10000
10 | O=C(Nc1cc(Br)cc2c1C(c1cc(F)ccc1Cl)NC2=O)c1ccc(F)c(OC(F)(F)F)c1 (centres unmarked) [Compound I-516] | 100 to 500
11 | N#Cc1ccc(C(=O)Nc2cc(Br)cc3c2C(c2cc(F)ccc2Cl)NC3=O)cc1 (centres unmarked) [Compound I-517] | 10000 to 100000
12 | O=C(Nc1cc(Br)cc2c1C(c1cc(F)ccc1Cl)NC2=O)c1ccccc1C(F)F (centres unmarked) [Compound I-518] | 10000 to 100000
13 | Cc1ccc(C(=O)Nc2cc(Br)cc3c2C(c2cc(F)ccc2Cl)NC3=O)cc1 (centres unmarked) [Compound I-519] | 10000 to 100000
14 | Cc1cccc(C(=O)Nc2cc(Br)cc3c2C(c2cc(F)ccc2Cl)NC3=O)c1 (centres unmarked) [Compound I-520] | 1000 to 10000
15 | O=C(Nc1cc(Br)cc2c1C(c1cc(F)ccc1Cl)NC2=O)c1cc(Cl)cc(Cl)c1 (centres unmarked) [Compound I-521] | ≤ 100
16 | N#Cc1cccc(C(=O)Nc2cc(Br)cc3c2C(c2cc(F)ccc2Cl)NC3=O)c1 (centres unmarked) [Compound I-522] | 1000 to 10000
17 | O=C(Nc1cc(Br)cc2c1C(c1cc(F)ccc1Cl)NC2=O)c1ccnc(C(F)(F)F)c1 (centres unmarked) [Compound I-523] | 10000 to 100000
18 | O=C(Nc1cc(Br)cc2c1C(c1cc(F)ccc1Cl)NC2=O)c1ccc(OC(F)(F)F)cc1 (centres unmarked) [Compound I-524] | 1000 to 10000
19 | O=C(Nc1cc(Br)cc2c1C(c1cc(F)ccc1Cl)NC2=O)c1ccc(F)cc1 (centres unmarked) [Compound I-525] | 10000 to 100000
20 | O=C(Nc1cc(Br)cc2c1C(c1cc(F)ccc1Cl)NC2=O)c1cccc(F)c1 (centres unmarked) [Compound I-526] | 1000 to 10000
21 | O=C(Nc1cc(Br)cc2c1C(c1cc(F)ccc1Cl)NC2=O)c1ccc(Cl)cc1 (centres unmarked) [Compound I-527] | 1000 to 10000
22 | Cc1ccccc1C1NC(=O)c2cc(Br)cc(NC(=O)c3cncc(C(F)(F)F)c3)c21 (centres unmarked) [Compound I-528] | 1000 to 10000
23 | O=C(Nc1cc(CCC(F)(F)F)nc2c1C(c1cc(F)ccc1Cl)NC2=O)c1cc(F)cc(C(F)(F)F)c1 (centres unmarked) [Compound I-529] | ≤ 100
24 | O=C(Nc1cc(NC2CCC2(F)F)cc2c1C(c1cc(F)ccc1Cl)NC2=O)c1cc(F)cc(C(F)(F)F)c1 (centres unmarked) [Compound I-530] | ≤ 100
25 | N#Cc1cc(NC(=O)c2cc(F)cc(Cl)c2)c2c(c1)C(=O)NC2c1cc(F)ccc1Cl (centres unmarked) [Compound I-531] | ≤ 100
26 | O=C(Nc1cc(NC2CCC2(F)F)nc2c1C(c1cc(F)ccc1Cl)NC2=O)c1cc(F)cc(C(F)(F)F)c1 (centres unmarked) [Compound I-532] | ≤ 100
27 | N#CCc1cc(NC(=O)c2cc(F)cc(C(F)(F)F)c2)c2c(c1)C(=O)NC2c1cc(F)ccc1Cl (centres unmarked) [Compound I-533] | ≤ 100
28 | Cc1ccccc1C1NC(=O)c2cc(Br)cc(NC(=O)c3cc(F)cc(C4CC4)c3)c21 (centres unmarked) [Compound I-534] | 1000 to 10000
29 | Cc1ccccc1C1NS(=O)(=O)c2cccc(NC(=O)c3cc(F)cc(C(F)(F)F)c3)c21 (centres unmarked) [Compound I-535] | 1000 to 10000
